The test relates to human cancer cell lines. The test is described as follows: Kendall's Tau correlation of CIN signature activities with drug response (AUC, PRISM drug repurposing screen) across cancer cell lines. Format: cell-based. The note with it: for tau (Kendall's Tau), CIN signature activity vs drug response: drug AUC, PRISM screen. An excerpt: Calculating signature activities for cell lines. […] Combined cell line log R and BAF data was split into sample-specific log R and BAF files. […] In this pipeline, while the rescued SNPs allow for the identification of additional segments from their Log R, by construction their average BAF is never equal to 0 or 1 even in the presence of LOH. This biases purity estimates towards lower values and renders the copy-number fitting inaccurate.
Where nT is the total number of copies in the tumour, ρ is the purity and ψ is the average tissue ploidy. Akin to ASCAT, we picked the purity and ploidy combination that minimized the distance between nr and integer values. […] As fitting of absolute copy number to non-matched cell line data is inherently more challenging than other instances, all cell lines where ASCAT identified a plausible solution were visually inspected to determine fit suitability and excluded cell lines where absolute copy number profiles were incorrect or poorly fitted. […] For identifying the signature activities, we used the linear combination decomposition function from YAPSA (R package, v1.12.0) and the 17 signatures of CIN.
CRISPR, RNAi and drug response data integration.
Correlation of signatures with target gene KO, KD and drug inhibition. Kendall's Tau correlation was performed between CIN signature activities and gene essentiality scores from the genetic perturbation screens. Correlations were filtered for tau<−0.07 and q-value<0.05 after multiple testing corrections using the Benjamini-Hochberg method. […] These targets were then used to test correlation of the signature activity with matched drug inhibition of the target measured via AUC.

For the compound `COc1cc2c(cc1O)CC[C@@H]1[C@@H]2CC[C@]2(C)[C@@H](O)CC[C@@H]12` [2-methoxyestradiol], where the note is “CIN sig. CX5, Target HIF1A”, the “tau (Kendall's Tau), CIN signature activity vs drug response” value (from here on “tau (Kendall's Tau) … vs drug response”) is recorded as −0.1543. Take `Cc1ccc(NC(=O)c2cccc(C(C)(C)C#N)c2)cc1Nc1ccc2ncn(C)c(=O)c2c1` [AZ-628]: the “tau (Kendall's Tau) … vs drug response” value is, setting by setting: (CIN sig. CX1, Target BRAF) −0.09859; (CIN sig. CX14, Target BRAF) −0.1048; (CIN sig. CX14, Target RAF1) −0.1048; (CIN sig. CX15, Target BRAF) −0.1189.

Consider `Cn1cc(CNCC2CCN(c3ncc(C(=O)NO)cn3)CC2)c2ccccc21` [JNJ-26481585], for which the “tau (Kendall's Tau) … vs drug response” value is, setting by setting: (CIN sig. CX17, Target HDAC2) −0.1371; (CIN sig. CX17, Target HDAC4) −0.1371. Take `OC(Cc1ccncc1)C(Cl)(Cl)Cl` (stereo not shown) [PETCM]: the “tau (Kendall's Tau) … vs drug response” value (CIN sig. CX9, Target CASP3) is on record as −0.1078.

Consider `O=C1NC(=O)c2c1c1c3ccccc3[nH]c1c1[nH]c3ccccc3c21` [arcyriaflavin-a], for which, where the note is “CIN sig. CX4, Target CCND1, 297 cancer cell lines”, the “association of CX4 activity with drug response, in words” value is “correlated with response to inhibition of CCND1”. Besides, the “tau (Kendall's Tau) … vs drug response” value is on record as −0.1159 (CIN sig. CX4, Target CCND1) and −0.07546 (CIN sig. CX13, Target CDK4). For the compound `C/C1=C/C[C@@H](/C(C)=C/c2csc(C)n2)OC(=O)C[C@H](O)C(C)(C)C(=O)[C@H](C)[C@@H](O)[C@@H](C)CCC1` [epothilone-d], for the setting “CIN sig. CX9, Target TUBB4B”, the “tau (Kendall's Tau) … vs drug response” value is listed as −0.07597.

On to `O=C(c1cc(Cc2n[nH]c(=O)c3ccccc23)ccc1F)N1CCN(C(=O)C2CC2)CC1` [olaparib], for which, where the note is “CIN sig. CX5, Target PARP1, 297 cancer cell lines”, the “association of CX5 activity with drug response, in words” value is on record as “predicted response to olaparib”.
